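Compound exposure: 48 hours, 5 concentrations, 96-well plates. GI50 is the concentration that inhibits growth by half. TGI: concentration producing complete growth inhibition.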
How the values were obtained:
Experiment in all cases: NCI tumour cell line growth inhibition, 48 h
SK-MEL-2 melanoma = tested on: SK-MEL-2 melanoma
BT-549 breast = tested on: BT-549 breast
RXF 393 renal = tested on: RXF 393 renal
SR leukemia = tested on: SR leukemia
HT29 colon = tested on: HT29 colon
HOP-62 NSCLC = tested on: HOP-62 NSCLC
HS 578T breast = tested on: HS 578T breast
NCI/ADR-RES ovarian = tested on: NCI/ADR-RES ovarian
UACC-62 melanoma = tested on: UACC-62 melanoma
OVCAR-8 ovarian = tested on: OVCAR-8 ovarian
K-562 leukemia = tested on: K-562 leukemia
HCC-2998 colon = tested on: HCC-2998 colon
ACHN renal = tested on: ACHN renal
A549 NSCLC = tested on: A549 NSCLC
HL-60(TB) leukemia = tested on: HL-60(TB) leukemia
MOLT-4 leukemia = tested on: MOLT-4 leukemia
SNB-19 CNS = tested on: SNB-19 CNS
NCI-H23 lung = tested on: NCI-H23 lung
OVCAR-4 ovarian = tested on: OVCAR-4 ovarian
SF-539 CNS = tested on: SF-539 CNS
SNB-75 CNS = tested on: SNB-75 CNS
MCF7 breast = tested on: MCF7 breast
RPMI-8226 leukemia = tested on: RPMI-8226 leukemia
SK-MEL-28 melanoma = tested on: SK-MEL-28 melanoma
DU-145 prostate = tested on: DU-145 prostate
HOP-92 NSCLC = tested on: HOP-92 NSCLC
NCI-H226 lung = tested on: NCI-H226 lung
786-0 renal = tested on: 786-0 renal
SK-OV-3 ovarian = tested on: SK-OV-3 ovarian
OVCAR-5 ovarian = tested on: OVCAR-5 ovarian
UACC-257 melanoma = tested on: UACC-257 melanoma
EKVX NSCLC = tested on: EKVX NSCLC
M14 melanoma = tested on: M14 melanoma
TK-10 renal = tested on: TK-10 renal
SW-620 colon = tested on: SW-620 colon
SK-MEL-5 melanoma = tested on: SK-MEL-5 melanoma
IGROV1 ovarian = tested on: IGROV1 ovarian
MDA-MB-435 = tested on: MDA-MB-435
LOX IMVI melanoma = tested on: LOX IMVI melanoma
MDA-MB-231 breast = tested on: MDA-MB-231 breast
SF-295 CNS = tested on: SF-295 CNS
HCT-15 colon = tested on: HCT-15 colon
PC-3 prostate = tested on: PC-3 prostate
MALME-3M melanoma = tested on: MALME-3M melanoma
KM12 colon = tested on: KM12 colon
SF-268 CNS = tested on: SF-268 CNS
OVCAR-3 ovarian = tested on: OVCAR-3 ovarian
HCT-116 colon = tested on: HCT-116 colon
SN12C renal = tested on: SN12C renal
CAKI-1 renal = tested on: CAKI-1 renal
T-47D breast = tested on: T-47D breast
NCI-H460 lung = tested on: NCI-H460 lung
NCI-H522 lung = tested on: NCI-H522 lung
COLO 205 colon = tested on: COLO 205 colon
A498 renal = tested on: A498 renal
CCRF-CEM leukemia = tested on: CCRF-CEM leukemia
UO-31 renal = tested on: UO-31 renal
U251 CNS = tested on: U251 CNS

## COc1ccc(/C=C(\C#N)n2nnc3cc(Cl)ccc32)cc1
SK-MEL-2 melanoma
  GI50: 0.483 µM
  TGI: > 47.6 µM
BT-549 breast
  GI50: 1.13 µM
  TGI: > 100 µM
RXF 393 renal
  GI50: 0.787 µM
  TGI: 2.62 µM
SR leukemia
  GI50: 0.336 µM
  TGI: > 100 µM
HT29 colon
  GI50: 0.334 µM
  TGI: > 100 µM
HOP-62 NSCLC
  GI50: 0.887 µM
  TGI: 11.1 µM
HS 578T breast
  GI50: 2.55 µM
  TGI: 9.37 µM
NCI/ADR-RES ovarian
  GI50: 0.299 µM
  TGI: 4.58 µM
UACC-62 melanoma
  GI50: 0.382 µM
  TGI: 9.66 µM
OVCAR-8 ovarian
  GI50: 0.751 µM
  TGI: > 100 µM
K-562 leukemia
  GI50: 0.217 µM
  TGI: > 100 µM
HCC-2998 colon
  GI50: 1.87 µM
  TGI: 8.14 µM
ACHN renal
  GI50: 0.593 µM
  TGI: > 43.5 µM
A549 NSCLC
  GI50: 0.714 µM
  TGI: > 100 µM
HL-60(TB) leukemia
  GI50: 0.327 µM
  TGI: > 100 µM
MOLT-4 leukemia
  GI50: 1.09 µM
  TGI: > 100 µM
SNB-19 CNS
  GI50: 1.12 µM
  TGI: > 41.4 µM
NCI-H23 lung
  GI50: 1.67 µM
  TGI: > 33.6 µM
OVCAR-4 ovarian
  GI50: 2.51 µM
  TGI: > 100 µM
SF-539 CNS
  GI50: 1.25 µM
  TGI: 3.5 µM
SNB-75 CNS
  GI50: 0.193 µM
  TGI: 0.983 µM
MCF7 breast
  GI50: 0.375 µM
  TGI: > 33.3 µM
RPMI-8226 leukemia
  GI50: 0.694 µM
  TGI: > 100 µM
SK-MEL-28 melanoma
  GI50: 1.33 µM
  TGI: 31.2 µM
DU-145 prostate
  GI50: 1.71 µM
  TGI: 7.58 µM
HOP-92 NSCLC
  GI50: 0.552 µM
  TGI: 4.27 µM
NCI-H226 lung
  GI50: 1.27 µM
  TGI: > 23.3 µM
786-0 renal
  GI50: 0.709 µM
  TGI: 8.61 µM
SK-OV-3 ovarian
  GI50: 7.09 µM
  TGI: > 82.3 µM
OVCAR-5 ovarian
  GI50: 1.4 µM
  TGI: 6.44 µM
UACC-257 melanoma
  GI50: 2.4 µM
  TGI: > 100 µM
EKVX NSCLC
  GI50: 1.47 µM
  TGI: > 78 µM
M14 melanoma
  GI50: 0.373 µM
  TGI: 6.63 µM
TK-10 renal
  GI50: 1.65 µM
  TGI: 11.5 µM
SW-620 colon
  GI50: 0.351 µM
  TGI: > 100 µM
SK-MEL-5 melanoma
  GI50: 2.36 µM
  TGI: 10.6 µM
IGROV1 ovarian
  GI50: 0.606 µM
  TGI: > 37.9 µM
MDA-MB-435
  GI50: 0.124 µM
  TGI: 0.342 µM
LOX IMVI melanoma
  GI50: 0.887 µM
  TGI: 9.4 µM
MDA-MB-231 breast
  GI50: 1.09 µM
  TGI: 10.2 µM
SF-295 CNS
  GI50: 1.18 µM
  TGI: 6.43 µM
HCT-15 colon
  GI50: 0.328 µM
  TGI: 11.4 µM
PC-3 prostate
  GI50: 0.498 µM
  TGI: > 75.2 µM
MALME-3M melanoma
  GI50: 1.22 µM
  TGI: 11.3 µM
KM12 colon
  GI50: 1.33 µM
  TGI: 37.1 µM
SF-268 CNS
  GI50: 2 µM
  TGI: > 100 µM
OVCAR-3 ovarian
  GI50: 0.253 µM
  TGI: 0.695 µM
HCT-116 colon
  GI50: 0.412 µM
  TGI: 26.2 µM
SN12C renal
  GI50: 0.662 µM
  TGI: > 100 µM
CAKI-1 renal
  GI50: 0.461 µM
  TGI: > 100 µM
T-47D breast
  GI50: 0.407 µM
NCI-H460 lung
  GI50: 2.83 µM
  TGI: > 56.6 µM
NCI-H522 lung
  GI50: 0.18 µM
  TGI: 0.704 µM
COLO 205 colon
  GI50: 0.513 µM
  TGI: 7.01 µM
A498 renal
  GI50: 0.201 µM
  TGI: 3.11 µM
CCRF-CEM leukemia
  GI50: 0.431 µM
  TGI: > 100 µM
UO-31 renal
  GI50: 2.2 µM
  TGI: 32.4 µM
U251 CNS
  GI50: 0.63 µM
  TGI: 9.53 µM

## Cn1cc(-c2nc(-c3c[nH]c4ncccc34)cs2)c2cc(Cl)ccc21
SK-MEL-2 melanoma
  GI50: 13.3 µM
  TGI: > 100 µM
BT-549 breast
  GI50: 27.3 µM
  TGI: > 100 µM
RXF 393 renal
  GI50: 4.63 µM
  TGI: > 100 µM
SR leukemia
  GI50: 6.92 µM
  TGI: > 100 µM
HOP-62 NSCLC
  GI50: 25.3 µM
  TGI: > 100 µM
HS 578T breast
  GI50: 4.18 µM
  TGI: 32.7 µM
NCI/ADR-RES ovarian
  GI50: 3.94 µM
  TGI: > 100 µM
UACC-62 melanoma
  GI50: 8.8 µM
  TGI: > 100 µM
OVCAR-8 ovarian
  GI50: 6.04 µM
  TGI: > 100 µM
K-562 leukemia
  GI50: 2.76 µM
  TGI: 15.2 µM
HCC-2998 colon
  GI50: 3.47 µM
  TGI: 28.3 µM
ACHN renal
  GI50: 3.6 µM
  TGI: > 100 µM
A549 NSCLC
  GI50: 3.94 µM
  TGI: > 100 µM
HL-60(TB) leukemia
  GI50: 5.93 µM
  TGI: > 100 µM
MOLT-4 leukemia
  GI50: 4.27 µM
  TGI: > 100 µM
SNB-19 CNS
  GI50: 6.61 µM
  TGI: > 100 µM
NCI-H23 lung
  GI50: 5.01 µM
  TGI: > 100 µM
OVCAR-4 ovarian
  GI50: 0.37 µM
  TGI: > 100 µM
SF-539 CNS
  GI50: 12.1 µM
  TGI: > 100 µM
SNB-75 CNS
  GI50: 3.52 µM
  TGI: > 100 µM
MCF7 breast
  GI50: 1.16 µM
  TGI: > 100 µM
RPMI-8226 leukemia
  GI50: 4.87 µM
  TGI: > 100 µM
SK-MEL-28 melanoma
  GI50: 7.43 µM
  TGI: > 100 µM
DU-145 prostate
  GI50: 5.67 µM
  TGI: > 100 µM
HOP-92 NSCLC
  GI50: 2.93 µM
  TGI: 18.4 µM
NCI-H226 lung
  GI50: 11.9 µM
  TGI: > 100 µM
786-0 renal
  GI50: 4.62 µM
  TGI: > 100 µM
SK-OV-3 ovarian
  GI50: 16.1 µM
  TGI: > 100 µM
OVCAR-5 ovarian
  GI50: 1.61 µM
  TGI: > 100 µM
UACC-257 melanoma
  GI50: 3.26 µM
  TGI: 16.5 µM
EKVX NSCLC
  GI50: 0.678 µM
  TGI: > 100 µM
M14 melanoma
  GI50: 4.85 µM
  TGI: 40.7 µM
TK-10 renal
  GI50: 5.78 µM
  TGI: > 100 µM
SW-620 colon
  GI50: 5.3 µM
  TGI: > 100 µM
SK-MEL-5 melanoma
  GI50: 7.48 µM
  TGI: > 100 µM
IGROV1 ovarian
  GI50: 4.54 µM
  TGI: > 100 µM
MDA-MB-435
  GI50: 3.47 µM
  TGI: > 100 µM
LOX IMVI melanoma
  GI50: 3.61 µM
  TGI: > 100 µM
MDA-MB-231 breast
  GI50: 2.65 µM
  TGI: 54.1 µM
SF-295 CNS
  GI50: 2.35 µM
  TGI: 8.75 µM
HCT-15 colon
  GI50: 2.34 µM
  TGI: > 100 µM
PC-3 prostate
  GI50: 3.62 µM
  TGI: > 100 µM
MALME-3M melanoma
  GI50: 12.5 µM
  TGI: 56.7 µM
KM12 colon
  GI50: 2.26 µM
  TGI: 7.47 µM
SF-268 CNS
  GI50: 5.28 µM
  TGI: > 100 µM
OVCAR-3 ovarian
  GI50: 7.47 µM
  TGI: 29.7 µM
HCT-116 colon
  GI50: 4.34 µM
  TGI: > 100 µM
SN12C renal
  GI50: 4.72 µM
  TGI: 94.2 µM
CAKI-1 renal
  GI50: 2.65 µM
  TGI: 9.22 µM
T-47D breast
  GI50: 0.0913 µM
  TGI: 23.6 µM
NCI-H460 lung
  GI50: 3.2 µM
  TGI: > 100 µM
NCI-H522 lung
  GI50: 5.56 µM
  TGI: > 100 µM
COLO 205 colon
  GI50: 3.74 µM
  TGI: 14.6 µM
A498 renal
  GI50: 2.61 µM
  TGI: 12.9 µM
CCRF-CEM leukemia
  GI50: 5.51 µM
  TGI: > 100 µM
UO-31 renal
  GI50: 2.81 µM
  TGI: 75.5 µM
U251 CNS
  GI50: 3.85 µM
  TGI: 30.8 µM

— PubChem BioAssay (NCI)
